In US20260008750A1, “COMPOUNDS, COMPOSITIONS, AND METHODS FOR REDUCING PRODUCTION OF TRIMETHYLAMINE” (The Cleveland Clinic Foundation, priority 2022, published 2026) one finds IC50 data, which are given here for five compounds.

Where a name gives a salt, the structure may show the parent alone.

This assay has as its target recombinant CutC/D (choline TMA lyase) (Proteus mirabilis, UniProt B4EYG1). In words: Choline TMA lyase enzymatic activity assay (d9-choline to d9-TMA) in clarified lysate. It counts as biochemical, P. mirabilis. Particulars: clarified lysate 5 mg/mL of E. coli expressing cutC/cutD; 300 μM d9-choline; 2 hours at 22° C.; d9-TMA by mass spectrometry. As for the experimental part: Full-length, recombinant CutC/D was expressed through the use of competent E. coli cells transformed with the expression plasmids encoding for the cutC and cutD genes from P. mirabilis as described (Wang Z et al., Cell 2015 Dec. 17; 163(7):1585-95). CutC/D over-expressing cells were grown in nutrient-rich LB medium with the addition of ampicillin (100 μg/mL). The cell pellets were kept on ice and re-suspended in the lysis buffer: 200 mM HEPES, 50 mM NaCl, 10 mM MgCl2, pH 8.0. Clarified lysate was aliquoted and flash frozen for storage at −80° C. until use.
Choline TMA lyase enzymatic activity assays were conducted to measure the conversion of isotope-labeled do-choline to do-TMA. Upon thawing an aliquot of frozen clarified lysate on ice and gentle mixing, clarified lysate was diluted to 5 mg/mL in lysis buffer and the necessary co-factors were added (final concentration: 1 mM SAM, 10 mM NaDT, and 2 mM NADH). Potential inhibitor compounds (typically dissolved in H2O) were serially diluted (10-fold) and added to individual reaction mixtures (done in triplicate). The mixture was then allowed to incubate for at least 15 minutes at 22° C. before the addition of substrate (300 μM final do-choline) to initiate the reaction, which was carried out for 2 hours at room temperature (22° C.) in the dark in gas tight sealed reaction vials. The reactions were quenched with the addition of 200 μL of 1 M NaOH and 0.5 μM of the internal standard ([^13C3^15N1]TMA), vortexing and placement in ice. d9-TMA production was quantified using mass spectrometry by measuring the peak area ratio of the precursor to product ion transition of d9-TMA (m/z 69→49) to the internal standard [^13C3^15N1]TMA (m/z 64→47).

recombinant CutC/D (choline TMA lyase), sequence (B4EYG1 1-1142): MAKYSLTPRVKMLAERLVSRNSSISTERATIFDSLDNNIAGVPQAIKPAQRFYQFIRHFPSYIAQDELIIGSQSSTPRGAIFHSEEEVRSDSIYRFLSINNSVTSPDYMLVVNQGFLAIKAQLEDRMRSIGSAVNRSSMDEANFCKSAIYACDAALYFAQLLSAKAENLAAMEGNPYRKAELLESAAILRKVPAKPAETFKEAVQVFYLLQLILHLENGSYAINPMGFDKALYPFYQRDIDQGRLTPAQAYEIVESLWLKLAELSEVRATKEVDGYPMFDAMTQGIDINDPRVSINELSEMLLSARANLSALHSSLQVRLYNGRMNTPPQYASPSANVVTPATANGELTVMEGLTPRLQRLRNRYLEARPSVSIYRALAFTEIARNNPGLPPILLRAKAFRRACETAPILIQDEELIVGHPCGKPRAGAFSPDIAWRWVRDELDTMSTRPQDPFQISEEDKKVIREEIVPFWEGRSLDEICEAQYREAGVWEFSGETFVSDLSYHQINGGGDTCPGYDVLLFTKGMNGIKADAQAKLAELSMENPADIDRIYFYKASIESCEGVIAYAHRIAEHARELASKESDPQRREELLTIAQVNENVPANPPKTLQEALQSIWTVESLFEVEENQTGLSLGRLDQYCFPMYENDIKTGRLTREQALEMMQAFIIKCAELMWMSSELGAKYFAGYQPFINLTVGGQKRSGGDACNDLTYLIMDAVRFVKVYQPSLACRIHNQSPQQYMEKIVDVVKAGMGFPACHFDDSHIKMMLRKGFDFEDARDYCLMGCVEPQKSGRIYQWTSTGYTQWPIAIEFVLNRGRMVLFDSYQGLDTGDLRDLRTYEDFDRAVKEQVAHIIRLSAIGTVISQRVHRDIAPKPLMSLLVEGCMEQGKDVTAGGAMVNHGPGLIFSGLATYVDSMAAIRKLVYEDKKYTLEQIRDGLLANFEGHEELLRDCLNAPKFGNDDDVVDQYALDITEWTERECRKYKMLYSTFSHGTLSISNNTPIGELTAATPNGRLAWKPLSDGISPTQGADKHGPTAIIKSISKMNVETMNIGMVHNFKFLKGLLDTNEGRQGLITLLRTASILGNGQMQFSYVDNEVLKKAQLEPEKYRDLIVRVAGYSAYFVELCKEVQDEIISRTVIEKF

`CC(C)[C@H](N)C(=O)OCC[N+](C)(C)CF` [Compound 2, (S)-2-((2-Amino-3-methylbutanoyl)oxy)-N-(fluoromethyl)-N,N-dimethylethanaminium dibromide]: the IC50 is 52 nM. Under `C[N+](C)(CF)CCOC(=O)[C@@H](N)Cc1ccccc1` [Compound 6, 2-((L-phenylalanyl)oxy)-N-(fluoromethyl)-N,N-dimethylethan-1-aminium dibromide] stands 18 nM. Under `C[N+](C)(CF)CCOC(=O)CN` [Compound 1, 2-(2-Aminoacetoxy)-N-(fluoromethyl)-N,N-dimethylethanaminium dibromide] stands 3.2 nM; under `C[C@H](N)C(=O)OCC[N+](C)(C)CF` [Compound 3, (S)-2-((2-Aminopropanoyl)oxy)-N-(fluoromethyl)-N,N-dimethylethanaminium dibromide], 31 nM; under `C[N+](C)(CF)CCOC(=O)[C@@H]1CCCN1` [Compound 5, N-(fluoromethyl)-N,N-dimethyl-2-(prolyloxy)ethan-1-aminium chloride hydrochloride], 6.5 nM.

The IC50 is the concentration needed to halve the response being measured.
